This note sets out measurements from PubChem BioAssay (NCI).

Among the test systems are CCRF-CEM leukemia; SK-OV-3 ovarian; HOP-92 NSCLC; K-562 leukemia; SNB-19 CNS; TK-10 renal; MDA-MB-231 breast; NCI-H460 lung; KM12 colon; NCI-H522 lung.
Holding throughout (test): inhibition of tumour cell growth, NCI panel, 48 h

SMILES strings stand for the structures.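 Following 48 hours of exposure in 96-well plates, responses at five concentrations were used to interpolate endpoints linearly. Abbreviation: GI50, concentration required for 50% inhibition of growth. TGI: total growth inhibition.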

In the case of `O=C(NN1C(=O)CSC12CCC(c1ccccc1)CC2)c1[nH]c2ccc(F)cc2c1-c1ccccc1` (stereo not given), the GI50 in the test with CCRF-CEM leukemia was 19.4 µM; in the test with SK-OV-3 ovarian, 37.7 µM; in the test with HOP-92 NSCLC, 17.2 µM; with K-562 leukemia, 23.7 µM; with SNB-19 CNS it was 29.8 µM; in the test on TK-10 renal it was 17.3 µM. Besides, the GI50 with MDA-MB-231 breast is 16.9 µM; with NCI-H460 lung, 19.6 µM; with KM12 colon, 16 µM; in the test on NCI-H522 lung, 14.3 µM. Besides, the TGI with CCRF-CEM leukemia is 41.1 µM; in the test on SK-OV-3 ovarian, greater than 100 µM; in the test with HOP-92 NSCLC it was 34.5 µM; in the test on K-562 leukemia, 62.9 µM; with SNB-19 CNS it was greater than 100 µM; in the test with TK-10 renal, 31.7 µM. Moreover, the TGI with MDA-MB-231 breast was 31.6 µM; with NCI-H460 lung, 47.7 µM; in the test with KM12 colon it was 30.7 µM; in the test on NCI-H522 lung, 28.2 µM.
As to `O=C(Cn1c2ccccc2c2ccncc21)N/N=C\c1ccc2ccccc2c1`, the GI50 is 45.1 µM with CCRF-CEM leukemia; 18.2 µM in the test on SK-OV-3 ovarian; 12.4 µM with HOP-92 NSCLC; 24.7 µM with K-562 leukemia; 17.7 µM with SNB-19 CNS; 27.3 µM in the test with TK-10 renal. In addition, the GI50 in the test on MDA-MB-231 breast was 14.5 µM; with NCI-H460 lung it was 13.9 µM; in the test on KM12 colon it was 29.6 µM; in the test on NCI-H522 lung, 19.6 µM. The TGI is greater than 100 µM in the test on CCRF-CEM leukemia; 39.4 µM in the test on SK-OV-3 ovarian; 36.7 µM in the test with HOP-92 NSCLC; greater than 100 µM with K-562 leukemia; 42.4 µM in the test with SNB-19 CNS; 54.7 µM with TK-10 renal. The TGI in the test with MDA-MB-231 breast is 32.9 µM; in the test with NCI-H460 lung, 39.9 µM; with KM12 colon, greater than 100 µM; in the test with NCI-H522 lung, 51.5 µM.
In the case of `CN(C)C(=S)SCC(N)=O`, the TGI in the test on CCRF-CEM leukemia, with SK-OV-3 ovarian, in the test with HOP-92 NSCLC, in the test on K-562 leukemia, in the test with SNB-19 CNS and with TK-10 renal was greater than 100 µM throughout. The TGI in the test on MDA-MB-231 breast, in the test with NCI-H460 lung, with KM12 colon and in the test on NCI-H522 lung was greater than 100 µM in each case.
Regarding `COc1ccc2c(c1)C=C1CSCC3=Cc4cc(OC)ccc4OC13O2`, the GI50 with CCRF-CEM leukemia is 0.328 µM; with SK-OV-3 ovarian, 0.671 µM; with HOP-92 NSCLC, 4.6 µM; with K-562 leukemia, 0.228 µM; in the test on SNB-19 CNS it was 0.552 µM; with TK-10 renal it was greater than 100 µM. Further, the GI50 in the test with MDA-MB-231 breast was 0.568 µM; with NCI-H460 lung, 0.387 µM; in the test with KM12 colon, 0.513 µM; with NCI-H522 lung it was 0.232 µM. The TGI was greater than 85.3 µM in the test on CCRF-CEM leukemia; greater than 100 µM with SK-OV-3 ovarian; greater than 100 µM in the test with HOP-92 NSCLC; greater than 100 µM with K-562 leukemia; greater than 100 µM in the test on SNB-19 CNS; greater than 100 µM with TK-10 renal. Further, the TGI is greater than 100 µM in the test with MDA-MB-231 breast, greater than 100 µM with NCI-H460 lung, greater than 100 µM in the test on KM12 colon and 0.937 µM in the test on NCI-H522 lung.
Consider `c1ccc(/C(=N\Nc2ccc3ccccc3n2)c2ccccn2)cc1`, for which the GI50 was 0.298 µM in the test on CCRF-CEM leukemia; 0.612 µM in the test with SK-OV-3 ovarian; 0.551 µM in the test with HOP-92 NSCLC; 0.649 µM with K-562 leukemia; 1.29 µM in the test on SNB-19 CNS; 0.372 µM with TK-10 renal. Further, the GI50 with MDA-MB-231 breast was 0.839 µM; with NCI-H460 lung it was 0.414 µM; in the test with KM12 colon, 0.989 µM; in the test on NCI-H522 lung, 0.412 µM. In addition, the TGI with CCRF-CEM leukemia was 1.47 µM; in the test with SK-OV-3 ovarian it was 18 µM; with HOP-92 NSCLC, 19.8 µM; with K-562 leukemia, 6.52 µM; with SNB-19 CNS, greater than 59.3 µM; with TK-10 renal, 5.31 µM. For the same compound, the TGI in the test with MDA-MB-231 breast came to 43.4 µM; with NCI-H460 lung it was 11.3 µM; in the test on KM12 colon it was 13.5 µM; in the test with NCI-H522 lung, 21.7 µM.
Take `CCc1nc(N)nc(N)c1C#CC(C)c1cc(-c2ccnc(C)c2)c2oc(C)nc2c1` (stereo not given): the GI50 in the test on CCRF-CEM leukemia is less than 0.01 µM; in the test with SK-OV-3 ovarian, 0.113 µM; in the test on HOP-92 NSCLC, 0.703 µM; in the test with K-562 leukemia, less than 0.01 µM; in the test on SNB-19 CNS, less than 0.0114 µM; in the test on TK-10 renal, 0.126 µM. Moreover, the GI50 in the test with MDA-MB-231 breast is 0.527 µM; in the test with NCI-H460 lung, less than 0.01 µM; in the test on KM12 colon it was 0.0201 µM; in the test on NCI-H522 lung, 0.0222 µM. Also, the TGI in the test with CCRF-CEM leukemia stood at 29.9 µM; in the test on SK-OV-3 ovarian, 8.53 µM; with HOP-92 NSCLC, 11.4 µM; in the test on K-562 leukemia, 31.3 µM; in the test on SNB-19 CNS, 12.1 µM; in the test with TK-10 renal it was 12 µM. The TGI with MDA-MB-231 breast was found to be 16.9 µM; in the test with NCI-H460 lung, 4.26 µM; with KM12 colon, 10.9 µM; with NCI-H522 lung, 9.66 µM.
Turning to `Clc1ccc(/C=C/c2nc(Cl)c(-c3ccc(Cl)cc3)c(Cl)n2)cc1`, the TGI in the test with CCRF-CEM leukemia was 84.8 µM; in the test on SK-OV-3 ovarian it was greater than 100 µM; in the test with HOP-92 NSCLC it was greater than 100 µM; in the test with K-562 leukemia, greater than 100 µM; in the test with SNB-19 CNS, greater than 100 µM; in the test with TK-10 renal, greater than 100 µM. Besides, the TGI in the test with MDA-MB-231 breast, in the test with NCI-H460 lung, in the test on KM12 colon and with NCI-H522 lung was greater than 100 µM each time.
For `O=C1NC(SCc2ccc(F)cc2)=N/C1=C/c1cccc(OCc2ccc(Cl)cc2)c1`, the GI50 in the test on CCRF-CEM leukemia was 64.2 µM; in the test on SK-OV-3 ovarian, 36.9 µM; in the test on HOP-92 NSCLC, 67.7 µM; in the test with K-562 leukemia, 28.8 µM; in the test on SNB-19 CNS, 21.7 µM; in the test with TK-10 renal, 6.07 µM. The GI50 was 24.6 µM with MDA-MB-231 breast, 4.39 µM in the test with NCI-H460 lung, greater than 100 µM in the test with KM12 colon and 57.3 µM with NCI-H522 lung. For the same compound, the TGI in the test on CCRF-CEM leukemia was greater than 100 µM; with SK-OV-3 ovarian, greater than 100 µM; in the test with HOP-92 NSCLC, greater than 100 µM; in the test on K-562 leukemia, greater than 100 µM; in the test on SNB-19 CNS, greater than 100 µM; in the test on TK-10 renal, 87.8 µM. Besides, the TGI in the test with MDA-MB-231 breast is greater than 100 µM; with NCI-H460 lung it was 30.3 µM; in the test on KM12 colon, greater than 100 µM; in the test with NCI-H522 lung, greater than 100 µM.
